# According to patent US20230123334A1, “AMINO LIPID COMPOUND, PREPARATION METHOD THEREFOR, AND APPLICATION THEREOF” (SHENZHEN SHENXIN BIOTECHNOLOGY CO., LTD., priority 2020, published 2023):
# Experiments:
# HEK293 cells [1] = assay: Preliminary screening as DNA vectors, GFP transfection of HEK293 cells; type: cell-based; conditions: HEK293 cells; lipid/DOPE liposome with 75 ng plasmid DNA (psin-EGFP-IRES-Puro); number of cells expressing GFP divided by total number of nuclei (Hoechst)
# Outline: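 HEK293 cells in DMEM/10% FBS transfected with 75 ng EGFP plasmid per well complexed with amino lipid/DOPE liposomes in pH 5.6 sodium acetate. Hoechst nuclear stain added 20-24 h post-transfection, then cells cultured another 20-24 h. Confocal imaging gives GFP-positive cells as % of total nuclei.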
# HEK293 cells [2] = assay: Preliminary screening as mRNA vectors, EGFP mRNA transfection of HEK293 cells; type: cell-based; conditions: HEK293 cells, 96-well plates, EGFP mRNA 50 ng per well; percentage of GFP fluorescent cells relative to total number of cells (Hoechst)
# Outline: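 HEK293 cells in DMEM plus 10% FBS transfected in 96-well format with 50 ng EGFP mRNA per well; Lipofectamine2000 served as positive control. Read-out is the percentage of GFP-fluorescent cells among total cells, counted by Hoechst nuclear stain.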
Structure (SMILES),Absolute DNA transfection efficiency in HEK293 cells (HEK293 cells [1]),Absolute mRNA transfection efficiency in HEK293 cells (HEK293 cells [2])
CCCCCCCCCCCCCCCCCCNc1nc(NCCCCCCCCCCCCC)nc(NCCN(C)C)n1 [Compound N13N18D1],2.7%,13.8%
CCCCCCCCCCCCCCCCCCNc1nc(NCCCCCCCCCCCCC)nc(NCCN2CCOCC2)n1 [Compound N13N18D2],0.2%,0.0%
CCCCCCCCCCCCCCCCCCNc1nc(NCCCCCCCCCCCCC)nc(NCCN2CCCC2)n1 [Compound N13N18D3],0.5%,21.5%
CCCCCCCCCCCCCCCCCCNc1nc(NCCCCCCCCCCCCC)nc(NCCN2CCCCC2)n1 [Compound N13N18D4],1.8%,3.1%
CCCCCCCCCCCCCCCCCCNc1nc(NCCCCCCCCCCCCC)nc(NCCN2CCN(C)CC2)n1 [Compound N13N18D5],0.2%,0.7%
CCCCCCCCCCCCCCCCCCNc1nc(NCCCCCCCCCCCCC)nc(NCCCN(C)C)n1 [Compound N13N18D6],3.0%,14.7%
CCCCCCCCCCCCCCCCCCNc1nc(NCCCCCCCCCCCCC)nc(NCCN(CC)CC)n1 [Compound N13N18D7],3.7%,1.3%
CCCCCCCCCCCCCCCCCCNc1nc(NCCCCCCCCCCCCC)nc(NCCCN2CCOCC2)n1 [Compound N13N18D8],0.0%,0.0%
CCCCCCCCCCCCCCCCCCNc1nc(NCCCCCCCCCCCCC)nc(NCCCN2CCN(C)CC2)n1 [Compound N13N18D9],1.1%,0.8%
CCCCCCCCCCCCCCCCCCNc1nc(NCCCCCCCCCCCCC)nc(NCC2CCN(C)CC2)n1 [Compound N13N18D10],0.5%,6.1%
CCCCCCCCCCCCCCCNc1nc(NCCCCCCCCCCCCCCC)nc(NCCN(C)C)n1 [Compound N15N15D1],2.3%,0.0%
CCCCCCCCCCCCCCCNc1nc(NCCCCCCCCCCCCCCC)nc(NCCN2CCOCC2)n1 [Compound N15N15D2],0.0%,0.0%
CCCCCCCCCCCCCCCNc1nc(NCCCCCCCCCCCCCCC)nc(NCCN2CCCC2)n1 [Compound N15N15D3],1.8%,3.8%
CCCCCCCCCCCCCCCNc1nc(NCCCCCCCCCCCCCCC)nc(NCCN2CCCCC2)n1 [Compound N15N15D4],1.3%,0.8%
CCCCCCCCCCCCCCCNc1nc(NCCCCCCCCCCCCCCC)nc(NCCN2CCN(C)CC2)n1 [Compound N15N15D5],0.9%,0.0%
CCCCCCCCCCCCCCCNc1nc(NCCCCCCCCCCCCCCC)nc(NCCCN(C)C)n1 [Compound N15N15D6],1.5%,0.0%
CCCCCCCCCCCCCCCNc1nc(NCCCCCCCCCCCCCCC)nc(NCCN(CC)CC)n1 [Compound N15N15D7],0.5%,0.0%
CCCCCCCCCCCCCCCNc1nc(NCCCCCCCCCCCCCCC)nc(NCCCN2CCOCC2)n1 [Compound N15N15D8],0.0%,0.0%
CCCCCCCCCCCCCCCNc1nc(NCCCCCCCCCCCCCCC)nc(NCCCN2CCN(C)CC2)n1 [Compound N15N15D9],0.4%,0.0%
CCCCCCCCCCCCCCCNc1nc(NCCCCCCCCCCCCCCC)nc(NCC2CCN(C)CC2)n1 [Compound N15N15D10],1.1%,4.2%
CCCCCCCCCCCCCCCCNc1nc(NCCCCCCCCCCCCCCC)nc(NCCN(C)C)n1 [Compound N15N16D1],1.8%,3.6%
CCCCCCCCCCCCCCCCNc1nc(NCCCCCCCCCCCCCCC)nc(NCCN2CCOCC2)n1 [Compound N15N16D2],0.0%,0.0%
CCCCCCCCCCCCCCCCNc1nc(NCCCCCCCCCCCCCCC)nc(NCCN2CCCC2)n1 [Compound N15N16D3],2.5%,6.1%
